Data on ten compounds can be found in PubChem BioAssay (NCI).

Molecules are shown by their SMILES.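 Exposure lasted 48 hours, with cells grown in 96-well plates and compounds tested at five concentrations. Abbreviation: GI50, concentration required for 50% inhibition of growth. At the TGI there is no net growth.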 A value given as a limit tells only on which side of the number the result lay.

Among the test systems are 786-0 renal; CCRF-CEM leukemia; IGROV1 ovarian; NCI-H23 lung; OVCAR-3 ovarian; OVCAR-8 ovarian; SF-268 CNS; SN12C renal; UO-31 renal.
Experiment in all cases: growth of human tumour cells (NCI), 48 h

Regarding `O=C(O)c1nn(-c2ccccc2-c2n[nH]c(=O)[nH]c2=O)c(=O)[nH]c1=O`, the TGI in the experiment on 786-0 renal, in the experiment with CCRF-CEM leukemia, in the experiment on IGROV1 ovarian, with NCI-H23 lung, with OVCAR-3 ovarian and with OVCAR-8 ovarian was greater than 100 µM throughout. The TGI with SF-268 CNS, in the experiment with SN12C renal and with UO-31 renal was greater than 100 µM throughout.

On to `CN(C)CCNC(=O)c1cccc2ccc(-c3ccncc3)nc12`, for which the TGI with 786-0 renal is 34.2 µM; in the experiment on CCRF-CEM leukemia it was 15.5 µM; with IGROV1 ovarian, 8.37 µM; in the experiment with NCI-H23 lung, 5.31 µM; with OVCAR-3 ovarian it was 14.4 µM; in the experiment with OVCAR-8 ovarian, greater than 100 µM. The TGI is 21.7 µM in the experiment with SF-268 CNS, 15.4 µM in the experiment with SN12C renal and 5.37 µM with UO-31 renal.

As for `O=C1c2cccc([N+](=O)[O-])c2C(=O)N1c1ncn[nH]1`, the TGI with 786-0 renal, with CCRF-CEM leukemia, in the experiment on IGROV1 ovarian, with NCI-H23 lung, with OVCAR-3 ovarian and with OVCAR-8 ovarian was greater than 100 µM each time. For the same compound, the TGI in the experiment on SF-268 CNS, with SN12C renal and in the experiment with UO-31 renal was greater than 100 µM each time.

As for `COc1ccc2c(c1)C(=O)Cc1ccccc1CC2`, the TGI with 786-0 renal, in the experiment on CCRF-CEM leukemia, with IGROV1 ovarian, with NCI-H23 lung, in the experiment on OVCAR-3 ovarian and in the experiment with OVCAR-8 ovarian was greater than 100 µM in each case. The TGI in the experiment with SF-268 CNS, with SN12C renal and with UO-31 renal was greater than 100 µM in each case.

Turning to `O=C(O)CCNC1CCCCC1`, the GI50 in the experiment with 786-0 renal, in the experiment with CCRF-CEM leukemia, in the experiment on IGROV1 ovarian, in the experiment with NCI-H23 lung, with OVCAR-3 ovarian and with OVCAR-8 ovarian was greater than 100 µM each time. For the same compound, the GI50 in the experiment on SF-268 CNS, with SN12C renal and in the experiment on UO-31 renal was greater than 100 µM each time. For the same compound, the TGI with 786-0 renal, with CCRF-CEM leukemia, in the experiment on IGROV1 ovarian, in the experiment on NCI-H23 lung, in the experiment with OVCAR-3 ovarian and in the experiment on OVCAR-8 ovarian was greater than 100 µM each time. Besides, the TGI in the experiment on SF-268 CNS, in the experiment with SN12C renal and in the experiment with UO-31 renal was greater than 100 µM each time.

For the compound `CC[C@@]1(c2ccccc2)C2=C(CC(C)(C)CC2=O)Nc2[nH]ncc21`, the GI50 was greater than 100 µM with 786-0 renal; 31.8 µM in the experiment with CCRF-CEM leukemia; greater than 100 µM with IGROV1 ovarian; greater than 100 µM in the experiment on NCI-H23 lung; greater than 100 µM in the experiment with OVCAR-3 ovarian; greater than 100 µM in the experiment with OVCAR-8 ovarian. Further, the GI50 in the experiment on SF-268 CNS, with SN12C renal and in the experiment on UO-31 renal was greater than 100 µM in each case. Further, the TGI in the experiment with 786-0 renal, in the experiment with CCRF-CEM leukemia, in the experiment on IGROV1 ovarian, in the experiment with NCI-H23 lung, with OVCAR-3 ovarian and in the experiment on OVCAR-8 ovarian was greater than 100 µM in each case. For the same compound, the TGI in the experiment on SF-268 CNS, with SN12C renal and in the experiment with UO-31 renal was greater than 100 µM in each case.

`CCOCC(=O)N[C@H]1CCc2cc(OC)c(OC)c(OC)c2-c2ccc(OC)c(=O)cc21`: the TGI in the experiment on 786-0 renal is greater than 100 µM; in the experiment with CCRF-CEM leukemia, greater than 100 µM; with IGROV1 ovarian, greater than 100 µM; in the experiment on NCI-H23 lung it was 0.178 µM; with OVCAR-3 ovarian, 0.0849 µM; with OVCAR-8 ovarian it was 17 µM. The TGI with SF-268 CNS, in the experiment with SN12C renal and in the experiment with UO-31 renal was greater than 100 µM throughout.

Consider `CCOC1Oc2ccc(C)cc2C(=O)/C1=C\Nc1ccc(C(N)=O)cc1` (stereo not given), for which the GI50 is 16.3 µM in the experiment on 786-0 renal; 20.3 µM in the experiment with CCRF-CEM leukemia; 18.9 µM with IGROV1 ovarian; 17.4 µM in the experiment with NCI-H23 lung; 18.8 µM in the experiment on OVCAR-3 ovarian; 17.7 µM in the experiment on OVCAR-8 ovarian. Also, the results for the GI50 in the experiment on SF-268 CNS, with SN12C renal and in the experiment on UO-31 renal were 44 µM, 17.6 µM and 21.2 µM, respectively. Moreover, the TGI in the experiment with 786-0 renal came to 30.4 µM; in the experiment with CCRF-CEM leukemia it was 65.3 µM; in the experiment with IGROV1 ovarian, 72.5 µM; in the experiment with NCI-H23 lung, 38.2 µM; in the experiment on OVCAR-3 ovarian it was 46.8 µM; in the experiment on OVCAR-8 ovarian, 40.3 µM. For the same compound, the TGI in the experiment on SF-268 CNS was greater than 100 µM; in the experiment on SN12C renal it was 38.8 µM; in the experiment on UO-31 renal it was 59.7 µM.

Consider `O=C(CCc1nnc2sc(-c3ccc(Cl)cc3Cl)nn12)c1nc2ccccc2[nH]1`, for which the GI50 is 1.48 µM in the experiment with 786-0 renal; 0.265 µM in the experiment on CCRF-CEM leukemia; 0.953 µM with IGROV1 ovarian; 0.694 µM with NCI-H23 lung; 0.491 µM in the experiment with OVCAR-3 ovarian; 1.48 µM with OVCAR-8 ovarian. Also, the GI50 in the experiment with SF-268 CNS is 0.994 µM; in the experiment with SN12C renal, 1.41 µM; in the experiment with UO-31 renal it was 0.838 µM. For the same compound, the TGI with 786-0 renal is 2.89 µM; in the experiment with CCRF-CEM leukemia, 0.974 µM; in the experiment with IGROV1 ovarian it was 6.35 µM; in the experiment on NCI-H23 lung it was 3 µM; in the experiment with OVCAR-3 ovarian it was 1.71 µM; in the experiment on OVCAR-8 ovarian, greater than 23.4 µM. The TGI in the experiment on SF-268 CNS was 2.85 µM; in the experiment on SN12C renal, 4.22 µM; in the experiment on UO-31 renal it was 2.24 µM.

Regarding `O=C1CCC(N2C(=O)c3ccccc3C2=O)C(=O)N1CO` (stereo not given), the GI50 in the experiment with 786-0 renal is greater than 100 µM; in the experiment on CCRF-CEM leukemia, 30.5 µM; with IGROV1 ovarian, 52.5 µM; in the experiment with NCI-H23 lung, 39.6 µM; in the experiment on OVCAR-3 ovarian, 67.4 µM; in the experiment on OVCAR-8 ovarian, greater than 100 µM. Moreover, the GI50 in the experiment with SF-268 CNS is greater than 100 µM; with SN12C renal, 73.7 µM; in the experiment with UO-31 renal it was greater than 100 µM. For the same compound, the TGI in the experiment with 786-0 renal was greater than 100 µM; in the experiment on CCRF-CEM leukemia, greater than 100 µM; in the experiment on IGROV1 ovarian, greater than 100 µM; in the experiment with NCI-H23 lung, 94.6 µM; in the experiment on OVCAR-3 ovarian it was greater than 100 µM; in the experiment on OVCAR-8 ovarian it was greater than 100 µM. Besides, the TGI in the experiment on SF-268 CNS, in the experiment on SN12C renal and with UO-31 renal was greater than 100 µM each time.
